Tests used:
ADAR = ADAR (Homo sapiens, UniProt P55265); details: literature study; cited from earlier work
ADAR1p110-WT = biological target: T1, ADAR1p110-WT (Homo sapiens, UniProt P55265); assay: Biacore SPR binding to ADAR1p110-WT
T1 construct: made in house; host or cells: Sf9 cells (baculovirus)
T1 sequence (P55265 1-931 isoform P55265-5): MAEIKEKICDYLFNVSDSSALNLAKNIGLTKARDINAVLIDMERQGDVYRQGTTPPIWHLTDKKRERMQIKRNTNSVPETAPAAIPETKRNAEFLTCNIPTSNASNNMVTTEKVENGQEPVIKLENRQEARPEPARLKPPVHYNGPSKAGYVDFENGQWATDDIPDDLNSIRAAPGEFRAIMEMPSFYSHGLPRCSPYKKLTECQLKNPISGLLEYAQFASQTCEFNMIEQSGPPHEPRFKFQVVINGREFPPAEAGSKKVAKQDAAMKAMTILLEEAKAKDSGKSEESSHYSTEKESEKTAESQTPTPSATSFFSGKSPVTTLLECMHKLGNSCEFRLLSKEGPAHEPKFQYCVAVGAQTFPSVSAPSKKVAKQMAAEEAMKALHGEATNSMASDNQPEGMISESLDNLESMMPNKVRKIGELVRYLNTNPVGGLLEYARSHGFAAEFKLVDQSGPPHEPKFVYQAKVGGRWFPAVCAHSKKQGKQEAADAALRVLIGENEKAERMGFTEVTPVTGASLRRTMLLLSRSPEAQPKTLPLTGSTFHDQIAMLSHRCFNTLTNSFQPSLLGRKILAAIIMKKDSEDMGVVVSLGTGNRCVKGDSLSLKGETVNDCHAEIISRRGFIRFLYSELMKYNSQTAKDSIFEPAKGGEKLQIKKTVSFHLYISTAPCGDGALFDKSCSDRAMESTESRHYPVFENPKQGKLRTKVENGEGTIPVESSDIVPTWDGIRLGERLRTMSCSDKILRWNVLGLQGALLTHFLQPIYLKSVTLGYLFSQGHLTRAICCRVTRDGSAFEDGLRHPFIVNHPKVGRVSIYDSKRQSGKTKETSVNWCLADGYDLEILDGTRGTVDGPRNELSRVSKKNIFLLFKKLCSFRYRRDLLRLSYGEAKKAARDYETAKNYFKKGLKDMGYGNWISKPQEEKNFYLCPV
From the text: FIGS. 5A-5D show Biacore SPR analysis for binding of ADAR1i to ADAR1p110. (FIG. 5A) SPR analysis for binding kinetics of 8 compounds to ADAR1p110-WT. ADAR1 inhibition positive (ADAR1i-13, ADAR1i-120, ADAR1i-124) and negative compounds. (FIG. 5B, FIG. 5C) […] of SPR analysis for binding of ADAR1i-13 and ADAR1i-124 to ADAR1p110-WT and ADAR1p110-E912A as well as negative control proteins, GAPDH and HuR, are shown. […] ADAR1-E912, equivalent of ADAR2 E396, is located in the catalytic center.
No complete 3-D structure of ADAR1 is currently available. […] The glutamate E912 and E396 in ADAR1 and ADAR2, respectively, plays an important proton transfer function during hydrolytic deamination reaction (42, 43).

HeLa-Nluc-edit cells = assay: First screen: FFL activity (cell viability/apoptosis) in reporter HeLa cells; details: FIG. 2C

Sequence of ADAR (P55265 whole entry, species assumed): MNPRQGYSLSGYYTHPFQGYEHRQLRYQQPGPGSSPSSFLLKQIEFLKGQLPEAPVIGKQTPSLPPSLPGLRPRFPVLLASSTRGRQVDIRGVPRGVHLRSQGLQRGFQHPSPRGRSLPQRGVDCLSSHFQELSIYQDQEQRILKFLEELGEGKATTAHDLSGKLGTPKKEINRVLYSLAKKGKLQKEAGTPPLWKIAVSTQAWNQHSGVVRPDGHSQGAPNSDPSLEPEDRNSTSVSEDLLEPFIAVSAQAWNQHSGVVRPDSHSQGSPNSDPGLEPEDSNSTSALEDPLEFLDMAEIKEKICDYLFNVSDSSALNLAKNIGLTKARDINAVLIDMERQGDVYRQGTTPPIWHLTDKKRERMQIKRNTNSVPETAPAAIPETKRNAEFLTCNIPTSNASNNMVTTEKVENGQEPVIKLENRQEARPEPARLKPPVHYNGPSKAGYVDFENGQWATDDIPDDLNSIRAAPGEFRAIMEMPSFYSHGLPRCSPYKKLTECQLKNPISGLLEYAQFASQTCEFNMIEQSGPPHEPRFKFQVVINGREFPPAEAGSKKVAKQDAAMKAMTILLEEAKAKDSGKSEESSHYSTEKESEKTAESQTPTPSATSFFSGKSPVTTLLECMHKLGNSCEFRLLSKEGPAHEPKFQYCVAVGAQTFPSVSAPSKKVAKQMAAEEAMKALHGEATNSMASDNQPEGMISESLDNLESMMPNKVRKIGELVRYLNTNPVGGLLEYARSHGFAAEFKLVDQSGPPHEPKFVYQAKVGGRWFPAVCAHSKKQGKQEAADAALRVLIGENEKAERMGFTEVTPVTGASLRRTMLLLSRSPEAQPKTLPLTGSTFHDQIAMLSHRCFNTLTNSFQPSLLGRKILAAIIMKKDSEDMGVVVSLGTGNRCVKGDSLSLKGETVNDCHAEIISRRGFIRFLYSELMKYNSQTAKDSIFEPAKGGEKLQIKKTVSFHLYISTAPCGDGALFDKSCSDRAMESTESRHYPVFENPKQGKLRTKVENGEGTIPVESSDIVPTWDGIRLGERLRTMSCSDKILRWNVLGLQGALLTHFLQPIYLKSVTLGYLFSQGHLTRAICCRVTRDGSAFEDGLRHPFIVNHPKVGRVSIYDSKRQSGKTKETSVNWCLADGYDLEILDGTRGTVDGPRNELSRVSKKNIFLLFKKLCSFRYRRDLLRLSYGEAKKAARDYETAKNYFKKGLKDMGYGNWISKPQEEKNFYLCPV

Row | SMILES | Binding to ADAR1p110-WT (ADAR1p110-WT) | further results
1 | Nc1ncnc2c1nnn2[C@@H]1O[C@H](CO)[C@@H](O)[C@H]1O [8-azaadenosine] |  | ADAR inhibition (ADAR): not ADAR inhibitors
2 | Nc1ncnc2c1nc(Cl)n2[C@@H]1O[C@H](CO)[C@@H](O)[C@H]1O [8-chloroadenosine] |  | ADAR inhibition (ADAR): not ADAR inhibitors
3 | N#Cc1ccc(NC(=O)c2nc3ccccc3[nH]2)cc1 [ADAR1i-122] | did not bind | 
4 | N#Cc1ccc(NC(=O)c2nc3c(N)ncnc3[nH]2)cc1 [ADAR1i-123] | did not bind | 
5 | N#Cc1ccc(NC(=O)c2cc3ccccc3s2)cc1 [ADAR1i-125] | did not bind | 
6 | N#Cc1ccc(NC(=O)c2[nH]c3ccccc3c2Cl)cc1 [ADAR1i-126] | did not bind | 
7 | COc1cccc2c1C(=O)c1c(O)c3c(c(O)c1C2=O)C[C@@](O)(C(=O)CO)C[C@@H]3O[C@H]1C[C@H](N)[C@H](O)[C@H](C)O1 [Doxorubicin] |  | Acute apoptosis detected by reduction of FFL activity (HeLa-Nluc-edit cells): induces acute apoptosis

Reference: patent US20260272878A1, “ADAR1 INHIBITORS AND USES THEREOF” (THE WISTAR INSTITUTE OF ANATOMY AND BIOLOGY, priority 2023, published 2026)
